Results reported in patent US7407961B2, “Pyrazine derivatives and pharmaceutical use thereof” (Astellas Pharma Inc., priority 2003, dated 2008).
Where a name gives a salt, the structure may show the parent alone.

In the case of CCOC(=O)c1nc(-c2ccc(=O)[nH]c2)c(-c2ccccc2)nc1N [Example 8, Ethyl 3-amino-6-(6-oxo-1,6-dihydro-3-pyridyl)-5-phenyl-2-pyrazinecarboxylate], the melting point is reported as 230 to 238 °C. For CC(C)n1cc(-c2nc(C(N)=O)c(N)nc2-c2cccc(F)c2)ccc1=O (hydrate or solvate) [Example 18, 3-Amino-5-(3-fluorophenyl)-6-(1-isopropyl-6-oxo-1,6-dihydro-3-pyridyl)-2-pyrazinecarboxamide], the melting point was 258.8 °C. CCCn1cc(-c2nc(C#N)c(N)nc2-c2ccccc2)ccc1=O [Example 13, 3-Amino-6-(6-oxo-1-propyl-1,6-dihydro-3-pyridyl)-5-phenyl-2-pyrazinecarbonitrile] showed a melting point of 180 to 183 °C. COc1cccc(-c2nc(N)c(C(N)=O)nc2-c2ccc(=O)n(C(C)C)c2)c1 (hydrate or solvate) [Example 24, 3-Amino-6-(1-isopropyl-6-oxo-1,6-dihydro-3-pyridyl)-5-(3-methoxyphenyl)-2-pyrazinecarboxamide] showed a melting point of 192.3 °C. With Cn1cc(-c2nc(C#N)c(N)nc2-c2ccccc2)ccc1=O (as salt: Na) [Example 11, 3-amino-6-(1-methyl-6-oxo-1,6-dihydro-3-pyridyl)-5-phenyl-2-pyrazinecarbonitrile] the melting point was greater than 250 °C. With COc1ccc(-c2nc(C(N)=O)c(N)nc2-c2ccccc2)cn1 (hydrate or solvate) [Example 15, 3-amino-6-(6-methoxy-3-pyridyl)-5-phenyl-2-pyrazinecarboxamide] the melting point was 208 to 212 °C. For CC(C)n1cc(-c2nc(C(N)=O)c(N)nc2-c2ccc(Cl)cc2)ccc1=O (hydrate or solvate) [Example 22, 3-Amino-5-(4-chlorophenyl)-6-(1-isopropyl-6-oxo-1,6-dihydro-3-pyridyl)-2-pyrazinecarboxamide], the melting point was 246.2 °C. CC(C)n1cc(-c2nc(C(N)=O)c(N)nc2-c2cc(F)cc(F)c2)ccc1=O (hydrate or solvate) [Example 30, 3-Amino-5-(3,5-difluorophenyl)-6-(1-isopropyl-6-oxo-1,6-dihydro-3-pyridyl)-2-pyrazinecarboxamide] showed a melting point of 248.8 °C. With CC(C)n1cc(-c2nc(C(=O)O)c(N)nc2-c2ccc(F)cc2)ccc1=O (hydrate or solvate) [Example 40, 3-amino-5-(4-fluorophenyl)-6-(1-isopropyl-6-oxo-1,6-dihydro-3-pyridyl)-2-pyrazinecarboxylic acid] the melting point was 222.2 °C. For COc1ccc(-c2nc(N)c(C#N)nc2-c2ccc(=O)n(C(C)C)c2)cc1 (hydrate or solvate) [Example 38, 3-Amino-6-(1-isopropyl-6-oxo-1,6-dihydro-3-pyridyl)-5-(4-methoxyphenyl)-2-pyrazinecarbonitrile], the melting point was 243.9 °C. Work on CCCn1cc(-c2nc(C(N)=O)c(N)nc2-c2ccccc2)ccc1=O [Example 5, 3-Amino-6-(6-oxo-1-propyl-1,6-dihydro-3-pyridyl)-5-phenyl-2-pyrazinecarboxamide] yielded a melting point greater than 250 °C. In the case of CC(C)n1cc(-c2nc(C(N)=O)c(N)nc2-c2ccccc2)ccc1=O [Example 6, 3-Amino-6-(1-isopropyl-6-oxo-1,6-dihydro-3-pyridyl)-5-phenyl-2-pyrazinecarboxamide], the melting point is reported as 240 to 245 °C. Molecule CC(C)OC(=O)c1nc(-c2ccc(=O)[nH]c2)c(-c2ccccc2)nc1N [Example 9, isopropyl 3-amino-6-(6-oxo-1,6-dihydro-3-pyridyl)-5-phenyl-2-pyrazinecarboxylate] has a melting point of 250 to 256 °C. In the case of CC(C)n1cc(-c2nc(C#N)c(N)nc2-c2ccc(F)c(F)c2)ccc1=O (hydrate or solvate) [Example 39, 3-Amino-5-(3,4-difluorophenyl)-6-(1-isopropyl-6-oxo-1,6-dihydro-3-pyridyl)-2-pyrazinecarbonitrile], the melting point is reported as 180 °C.
